In PubChem BioAssay (NCI):
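Step 1: Grow cells in 96-well plates. Step 2: Expose to compound for 48 hours at 5 concentrations. Step 3: Interpolate endpoints linearly; if unreached, use highest concentration. Here, GI50 denotes the concentration required for 50% inhibition of growth. At the TGI there is no net growth.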

What was measured:
Assay in all cases: NCI tumour cell line growth inhibition, 48 h
A549 NSCLC = tested on: A549 NSCLC
NCI-H522 lung = tested on: NCI-H522 lung
DU-145 prostate = tested on: DU-145 prostate
COLO 205 colon = tested on: COLO 205 colon
MDA-MB-435 = tested on: MDA-MB-435
K-562 leukemia = tested on: K-562 leukemia
BT-549 breast = tested on: BT-549 breast
SNB-19 CNS = tested on: SNB-19 CNS

## Cn1nc(N)c2cc([C@@H]3Nc4ccc5[nH]ncc5c4[C@H]4C5CCC(C5)[C@@H]34)ccc21 (stereo not given in full)
A549 NSCLC
  GI50: 0.699 µM
  TGI: > 100 µM
NCI-H522 lung
  GI50: 0.474 µM
  TGI: 24 µM
DU-145 prostate
  GI50: 0.438 µM
  TGI: 37.7 µM
COLO 205 colon
  GI50: 0.431 µM
  TGI: 13 µM
MDA-MB-435
  GI50: 0.166 µM
  TGI: 0.437 µM
K-562 leukemia
  GI50: 0.324 µM
  TGI: > 100 µM
BT-549 breast
  GI50: 1.01 µM
  TGI: 12.3 µM
SNB-19 CNS
  GI50: 2.34 µM
  TGI: 34.8 µM

## N#Cc1c(NN)n(C2OC(CO)C(O)C2O)c2ncnc(N)c12 (stereo not given)
A549 NSCLC
  GI50: 0.0353 µM
  TGI: > 100 µM
NCI-H522 lung
  GI50: 0.198 µM
  TGI: 0.469 µM
DU-145 prostate
  GI50: 0.0375 µM
  TGI: 6.26 µM
COLO 205 colon
  TGI: 0.0424 µM
MDA-MB-435
  GI50: 0.104 µM
  TGI: 0.916 µM
K-562 leukemia
  GI50: 0.0181 µM
  TGI: 0.176 µM
BT-549 breast
  GI50: 0.271 µM
  TGI: 2.8 µM
SNB-19 CNS
  GI50: 0.395 µM
  TGI: > 29.5 µM

## CCC(C)n1ncn(-c2ccc(N3CCN(c4ccc(OCC5COC(Cn6cncn6)(c6ccc(Cl)cc6Cl)O5)cc4)CC3)cc2)c1=O (stereo not given)
A549 NSCLC
  GI50: 35.8 µM
  TGI: > 100 µM
NCI-H522 lung
  GI50: 15.4 µM
  TGI: 60.8 µM
DU-145 prostate
  GI50: > 100 µM
  TGI: > 100 µM
COLO 205 colon
  GI50: 4.12 µM
  TGI: > 100 µM
MDA-MB-435
  GI50: > 100 µM
  TGI: > 100 µM
K-562 leukemia
  GI50: 9.76 µM
  TGI: > 100 µM
BT-549 breast
  GI50: 3.6 µM
  TGI: > 100 µM
SNB-19 CNS
  GI50: 38.9 µM
  TGI: > 100 µM

## O=C(Nc1ccc(Cl)cc1F)c1ccccc1O
A549 NSCLC
  GI50: 3.6 µM
  TGI: > 100 µM
NCI-H522 lung
  GI50: 2.45 µM
  TGI: 30 µM
DU-145 prostate
  GI50: 4.13 µM
  TGI: > 100 µM
COLO 205 colon
  GI50: 5.7 µM
  TGI: 41.2 µM
MDA-MB-435
  GI50: 3.37 µM
  TGI: 30.7 µM
K-562 leukemia
  GI50: 3.5 µM
  TGI: > 100 µM
BT-549 breast
  GI50: 2.88 µM
  TGI: 9.88 µM
SNB-19 CNS
  GI50: 3.23 µM
  TGI: > 100 µM

## CCn1c(-c2nonc2N)nc2c(C#CC(C)(C)O)nc(OC[C@H](N)c3ccccc3)cc21
A549 NSCLC
  GI50: 3.69 µM
  TGI: 7.45 µM
NCI-H522 lung
  GI50: 4.47 µM
  TGI: 8.63 µM
DU-145 prostate
  GI50: 3.26 µM
  TGI: 6.47 µM
COLO 205 colon
  GI50: 3.52 µM
  TGI: 7 µM
MDA-MB-435
  GI50: 4.79 µM
  TGI: 9.42 µM
K-562 leukemia
  GI50: 5.09 µM
  TGI: 14 µM
BT-549 breast
  GI50: 3.39 µM
  TGI: 6.74 µM
SNB-19 CNS
  GI50: 7.3 µM
  TGI: 20.5 µM

## O=C(Cc1ccc(/C=C/C(=O)c2ncc[nH]2)cc1)Nc1cc(F)c(F)c(F)c1
A549 NSCLC
  GI50: 4.13 µM
  TGI: 17.8 µM
NCI-H522 lung
  GI50: 3.46 µM
  TGI: 8.01 µM
DU-145 prostate
  GI50: 3.37 µM
  TGI: 7.08 µM
COLO 205 colon
  GI50: 4.08 µM
  TGI: 9.4 µM
MDA-MB-435
  GI50: 4.25 µM
  TGI: 12.8 µM
K-562 leukemia
  GI50: 2.31 µM
  TGI: > 25 µM
BT-549 breast
  GI50: 3.37 µM
  TGI: 6.74 µM
SNB-19 CNS
  GI50: 4.07 µM
  TGI: 9.93 µM

## C=C(CNCc1ccccc1)c1ccc(C(=O)Nc2ccccc2N)cc1
A549 NSCLC
  GI50: 7.34 µM
  TGI: > 100 µM
NCI-H522 lung
  GI50: 1.78 µM
  TGI: 6.01 µM
DU-145 prostate
  GI50: 5.05 µM
  TGI: > 100 µM
COLO 205 colon
  GI50: 4.9 µM
  TGI: 38.5 µM
MDA-MB-435
  GI50: 5.24 µM
  TGI: 27.7 µM
K-562 leukemia
  GI50: 2.58 µM
  TGI: > 100 µM
BT-549 breast
  GI50: 15.4 µM
  TGI: > 100 µM
SNB-19 CNS
  GI50: 16.4 µM
  TGI: 78.5 µM

## Cc1ccc(C)c(C2=C(c3cn(C)c4ccccc34)C(=O)NC2=O)c1
A549 NSCLC
  GI50: 18.9 µM
  TGI: > 25 µM
NCI-H522 lung
  GI50: > 25 µM
  TGI: > 25 µM
DU-145 prostate
  GI50: > 20.2 µM
  TGI: > 25 µM
COLO 205 colon
  GI50: 7.36 µM
  TGI: > 25 µM
MDA-MB-435
  GI50: 24 µM
  TGI: > 25 µM
K-562 leukemia
  GI50: 15.1 µM
  TGI: > 25 µM
BT-549 breast
  GI50: > 25 µM
  TGI: > 25 µM
SNB-19 CNS
  GI50: > 25 µM
  TGI: > 25 µM

## C=C1C(=O)OC2CCN3CC=C(COC(=O)C(C)(O)C4(CO4)C1C)C23 (stereo not given)
A549 NSCLC
  TGI: > 100 µM
NCI-H522 lung
  TGI: > 100 µM
DU-145 prostate
  TGI: > 100 µM
COLO 205 colon
  TGI: > 100 µM
MDA-MB-435
  TGI: > 100 µM
K-562 leukemia
  TGI: > 100 µM
BT-549 breast
  TGI: > 100 µM
SNB-19 CNS
  TGI: > 100 µM

## OC[C@H]1C[C@](O)(c2ccc(Cl)cc2)[C@@H](c2ccc(Cl)cc2)O1
A549 NSCLC
  GI50: 29.6 µM
  TGI: 78.7 µM
NCI-H522 lung
  GI50: 26 µM
  TGI: 52.9 µM
DU-145 prostate
  GI50: 22.1 µM
  TGI: 56.9 µM
COLO 205 colon
  GI50: 25.6 µM
  TGI: 51.8 µM
MDA-MB-435
  GI50: 22.9 µM
  TGI: 47.8 µM
K-562 leukemia
  GI50: 24.9 µM
  TGI: 76.5 µM
BT-549 breast
  GI50: 16.8 µM
  TGI: 34.6 µM
SNB-19 CNS
  GI50: 37.8 µM
  TGI: > 100 µM

## Cn1cc(CO)c2c1C(=O)C=C(N1CC1)C2=O
A549 NSCLC
  GI50: < 0.01 µM
  TGI: 3.68 µM
NCI-H522 lung
  GI50: < 0.01 µM
  TGI: 0.0775 µM
DU-145 prostate
  GI50: < 0.01 µM
  TGI: 0.131 µM
COLO 205 colon
  GI50: < 0.0187 µM
MDA-MB-435
  GI50: < 0.01 µM
  TGI: 0.04 µM
K-562 leukemia
  GI50: 0.0224 µM
  TGI: 11.1 µM
BT-549 breast
  GI50: < 0.0128 µM
  TGI: 0.133 µM
SNB-19 CNS
  GI50: < 0.0197 µM
  TGI: 0.862 µM

## COc1ccc(CN2C(=O)/C(=C\C(=O)c3ccc(OCCN4CCCCC4)cc3)c3ccccc32)cc1
A549 NSCLC
  GI50: 15.9 µM
  TGI: 31.2 µM
NCI-H522 lung
  GI50: 1.97 µM
  TGI: 3.78 µM
DU-145 prostate
  GI50: 3.35 µM
  TGI: 11.5 µM
COLO 205 colon
  GI50: 1.86 µM
  TGI: 3.97 µM
MDA-MB-435
  GI50: 3.12 µM
  TGI: 12.3 µM
K-562 leukemia
  GI50: 2.31 µM
  TGI: 10.4 µM
BT-549 breast
  GI50: 5.25 µM
  TGI: 16.5 µM
SNB-19 CNS
  GI50: 4.63 µM
  TGI: 17.1 µM

## CS(=O)(=O)Nc1ccc2c(c1)oc(=O)c1ccccc12
A549 NSCLC
  TGI: > 100 µM
NCI-H522 lung
  TGI: > 100 µM
DU-145 prostate
  TGI: > 100 µM
COLO 205 colon
  TGI: > 100 µM
MDA-MB-435
  TGI: > 100 µM
K-562 leukemia
  TGI: > 100 µM
BT-549 breast
  TGI: > 100 µM
SNB-19 CNS
  TGI: > 100 µM

## O=C(Nc1nc2ccc(C(F)(F)F)cc2s1)c1cc(Cl)ccc1O
A549 NSCLC
  GI50: 1.51 µM
  TGI: > 100 µM
NCI-H522 lung
  GI50: 0.278 µM
  TGI: 2.08 µM
DU-145 prostate
  GI50: 1.59 µM
  TGI: > 100 µM
COLO 205 colon
  GI50: 1.38 µM
  TGI: 4 µM
MDA-MB-435
  GI50: 1.69 µM
  TGI: > 100 µM
K-562 leukemia
  GI50: 0.351 µM
  TGI: > 100 µM
BT-549 breast
  GI50: 0.89 µM
  TGI: 7.77 µM
SNB-19 CNS
  GI50: 0.629 µM
  TGI: > 100 µM

## CC(C)c1ccc2c(c1)CC[C@@H]1[C@@](C)(C(=O)O)CCC[C@]21C
A549 NSCLC
  GI50: 5.56 µM
  TGI: 25 µM
DU-145 prostate
  GI50: 4.39 µM
  TGI: 19.6 µM
COLO 205 colon
  GI50: 3.23 µM
  TGI: 7.83 µM
MDA-MB-435
  GI50: 10.9 µM
  TGI: 29.5 µM
K-562 leukemia
  GI50: 2.5 µM
  TGI: 9.2 µM
BT-549 breast
  GI50: 1.47 µM
  TGI: 4.59 µM
SNB-19 CNS
  GI50: 6.21 µM
  TGI: 18.6 µM

## CN1CCN(CCOc2ccc(-c3cnc4c(-c5ccccc5F)cnn4c3)cc2)CC1
NCI-H522 lung
  GI50: 1.69 µM
  TGI: 3.39 µM
DU-145 prostate
  GI50: 1.65 µM
  TGI: 3.07 µM
MDA-MB-435
  GI50: 1.7 µM
  TGI: 3.1 µM
BT-549 breast
  GI50: 1.9 µM
  TGI: 3.77 µM
SNB-19 CNS
  GI50: 1.73 µM
  TGI: 3.26 µM
